The term IC50 denotes the concentration that gives 50% inhibition.

Entries after “also recorded” stand apart in the source; their conditions may differ. Like-named read-outs stand apart in the source and are kept apart here. Non-standard residues stand in square brackets, D forms with d. Residues, ends and D or L forms follow the SMILES beside them. No end group written: not given here. ξ: configuration not given here. Ac6c = NC1(C(=O)O)CCCCC1; Dap = NC[C@H](N)C(=O)O; ξDap = NCC(N)C(=O)O A value given as a limit tells only on which side of the number the result lay.

Data set [1] has as its system Escherichia coli D22. To be noted: read-out: IC50 in μM against Escherichia coli D22; 30° C., 24 hours; for Peptide 22 original assay (a). Here is the method: (§1) Growth inhibition assays were performed using the peptides of Example 1 and the Gram positive microorganisms Micrococcus luteus and Bacillus megaterium, and the Gram negative microorganisms, Escherichia coli D22, Agrobacterium tumefaciens, and Salmonella typhimurium. Anti-bacterial assays were performed in sterilized 96-well plates (Nunc F96 microtiter plates) with a final volume of 100 μl as described in Bulet (1996), cited above. Briefly, 90 μl of a suspension of a midlogarithmic phase bacterial culture at an initial 600 nm UV absorbence of 0.001 in Luria-Bertani rich nutrient medium was added to 10 μl of serially diluted peptides in sterilized water. The final peptide concentrations ranged between 0.15 and 80 μM. The plates were incubated at 30° C. for 24 hours with gentle shaking, and the growth inhibition was measured by recording the increase of the UV absorbence at 600 nm on an SLT Labinstruments 400 ATC microplate reader. The experiments were conducted over a 7-month period.

The test system of data set [2] is Salmonella typhimurium. The method, then:
as §1

Data set [3] deals with Bacillus megaterium. The method, then:
as §1

In data set [4] the test system is Micrococcus luteus. Here is the method:
as §1

Data set [5] has as its system Agrobacterium tumefaciens. Here is the method:
as §1

The nature of data set [6]: 25% aqueous pooled mouse serum (Sigma). To be noted: 37° C., up to 8 hours.
The nature of data set [7]: 25% aqueous pooled human serum (Sigma), human 1, approximately 1 year old. Particulars: 37° C., up to 8 hours.
A short description of data set [8]: 25% aqueous pooled human serum (Sigma), human 2, approximately 1 month old. Particulars: 37° C., up to 8 hours.
For data set [9] the following is noted: 25% sera, data not shown.
The conditions of data set [10]: mouse serum, 45-minute digestion, MALDI-MS peak height.
Experimental: (§2) Owing to the fact that the use of diluted serum increases peptide recovery as well as retards the reaction kinetics to a manageable rate, the experiments were conducted using 25% aqueous sera.
(§3) For serum stability studies, 10 μl of an aqueous peptide stock solution containing about 0.8 mg/ml peptide was added to 200 μl 25% aqueous pooled mouse or human serum (Sigma, St. Louis, Mo.), according to the process described in M. F. Powell et al, Pharmacol Res, 10: 1268–1273 (1993). The peptide-serum mixture was thermostated at 37° C. After 0 minutes, 45 minutes, 2 hours and 4 hours, three samples of each peptide were taken and precipitated by the addition of 40 μl 15% aqueous trichloroacetic acid. The samples were stored at 4° C. for 20 minutes and centrifuged. The peptides and some remaining serum proteins were recovered in the supernatant after the trichloroacetic acid precipitation. The supernatants were immediately frozen on dry-ice and 220 μl of each were analyzed on RP-HPLC. A mouse serum and two different batches of the same SIGMA catalog number of human sera (human 1, approximately 1 year old, and human 2, approximately 1 month old) were also used.
(§4) The lyophilized samples were redissolved in 0.1 aqueous TFA and submitted for matrix assisted laser desorption/ionization (MALDI-MS).
(§5) The missing residues are indicated (e.g—C2 means that the C-terminal two residues are cleaved off). […] In Table 4, the relative amounts of the degradation products are estimated based on the MALDI-MS peak heights. 0=not detected; 1=very weak (below 5000), 2=weak (5–10000), 3=medium (10–15000), 4=strong (15000-uncleaved molecular ion at 25–30000), 5=very strong (above uncleaved molecular ion).
The conditions of data set [11]: 45-minute digestion.
Experimental: as §2, §3, §4, §5
Where [12] appears, read: read-out: IC50 in μM against Salmonella typhimurium, 30° C., 24 hours, for Peptide 22 original assay (a).
Where [13] appears, read: read-out: IC50 in μM against Bacillus megaterium, 30° C., 24 hours, for Peptide 22 original assay (a).
The mark [14] stands for this setting: read-out: IC50 in μM against Micrococcus luteus, 30° C., 24 hours, for Peptide 22 original assay (a).
Where [15] appears, read: read-out: IC50 in μM against Agrobacterium tumefaciens, 30° C., 24 hours, for Peptide 22 original assay (a).
Where [16] appears, read: human 1 serum (approximately 1 year old).
The mark [17] stands for this setting: human 2 serum (approximately 1 month old).

Regarding PTPPRPIYNRN [Peptide 15], the IC50 in data set [1], in data set [2] (setting [12]), in data set [3] (setting [13]), in data set [4] (setting [14]) and in [5] (setting [15]) was greater than 80 µM throughout.

Regarding VDKGSYLPRPTPPRPIYN [Peptide 25], the IC50 in [1], in data set [2] (setting [12]), in data set [3] (setting [13]), in data set [4] (setting [14]) and in data set [5] (setting [15]) was greater than 80 µM each time.

As for `CC[C@@H](C)[C@@H](NC(=O)[C@H]1CCCN1C(=O)[C@@H](CCCNC(=N)N)NC(=O)[C@H]1CCCN1C(=O)[C@H]1CCCN1C(=O)[C@H](NC(=O)[C@H]1CCCN1C(=O)[C@@H](CCCNC(=N)N)NC(=O)[C@H]1CCCN1C(=O)[C@@H](CC(C)C)NC(=O)[C@@H](Cc1ccc(O)cc1)NC(=O)[C@@H](CO)NC(=O)CNC(=O)[C@@H](CCCCN)NC(=O)[C@@H](CC(=O)O)NC(=O)[C@H](N)C(C)C)[C@H](C)O)C(=O)N[C@H](Cc1ccc(O)cc1)C(=O)N[C@H](CC(N)=O)C(=O)N[C@H](CCCNC(=N)N)C(=O)N[C@H](CC(N)=O)C(N)=O` [Peptide 13] (H-[dV][dD][dK]G[dS][dY][dL][dP][dR][dP][dT][dP][dP][dR][dP][dI][dY][dN][dR][dN]-NH2; N-terminus and C-terminus assumed), the IC50 is greater than 80 µM in data set [1]; greater than 80 µM in data set [2] (setting [12]); greater than 80 µM in data set [3] (setting [13]); 40 µM in data set [4] (24 h); greater than 80 µM in [5] (setting [15]).

For “1-aminocyclo-hexane carboxylic acid (Chex)-Pyrrhocoricin-β-acetyl-2,3-diamino propionic amide [Dap(Ac)]”, the cleaved bond entry is “Asn18-Arg19, 45-minute; also recorded: Ser5-Tyr6, 45-minute” in [6]; “Asn18-Arg19, 45-minute; also recorded: Ser5-Tyr6, 45-minute” in data set [7]; “Asn18-Arg19, 45-minute; also recorded: Ser5-Tyr6, 45-minute” in data set [8]. Besides, the not cleaved entry in data set [6], in data set [7] and in [8] was “−C1 not detected (0) after 45-minute digestion” each time. Besides, the fragment found result is given as “−C3, 45-minute; also recorded: −N5, C2, 45-minute” in [7] and “−N5, C2, 45-minute” in [8].

On to `CC[C@H](C)[C@H](NC(=O)[C@@H]1CCCN1C(=O)[C@H](CCCNC(=N)N)NC(=O)[C@@H]1CCCN1C(=O)[C@@H]1CCCN1C(=O)[C@@H](NC(=O)[C@@H]1CCCN1C(=O)[C@H](CCCNC(=N)N)NC(=O)[C@@H]1CCCN1C(=O)[C@H](CC(C)C)NC(=O)[C@H](Cc1ccccc1)NC(=O)[C@H](C)NC(=O)CNC(=O)[C@H](CCCCN)NC(=O)[C@H](CC(=O)O)NC(=O)C1(N)CCCCC1)[C@@H](C)O)C(=O)N[C@@H](Cc1ccc(O)cc1)C(=O)N[C@@H](CC(N)=O)C(=O)N[C@@H](CCCNC(=N)N)C(=O)NC(CNC(C)=O)C(N)=O` (stereo partly shown) [Peptide 23] (H-[Ac6c]DKGAFLPRPTPPRPIYNR[ξDap](Ac)-NH2), for which the IC50 worked out at 20 µM in data set [1]; 40 µM in data set [3] (Bacillus, 24 h); 5 µM in data set [4] (24 h).

Take VDKGSYLPRPTPPRPIYNRN: the cleaved bond entry in data set [6] was “Arg19-Asn20, first_seen, 45 minute; also recorded: Asn18-Arg19, 45-minute”; in [7] it was “Arg19-Asn20, first_seen, 45 minute; also recorded: Asn18-Arg19, 45-minute; also recorded: Ser5-Tyr6, 45-minute”; in [8], “Arg19-Asn20, first_seen, 45 minute; also recorded: Asn18-Arg19, 45-minute”. In addition, in data set [7], the fragment found result was “−C3, 45-minute; also recorded: −C6, 45-minute”.

Consider “VDKGSYLPRPTPPRPIYNRN [Peptide 2, reference compound]”, for which the IC50 is 0.3 µM in data set [1]; 2.5 µM in data set [2] (setting [12]); 40 µM in data set [3] (setting [13]); greater than 80 µM in [4] (setting [14]); 0.3 µM in [5] (setting [15]).

Consider `CC[C@H](C)[C@H](NC(=O)[C@@H]1CCCN1C(=O)[C@H](CCCNC(=N)N)NC(=O)[C@@H]1CCCN1C(=O)[C@@H]1CCCN1C(=O)[C@@H](NC(=O)[C@@H]1CCCN1C(=O)[C@H](CCCNC(=N)N)NC(=O)[C@@H]1CCCN1C(=O)[C@H](CC(C)C)NC(=O)[C@H](Cc1ccc(O)cc1)NC(=O)[C@H](CO)NC(=O)CNC(=O)[C@H](CCCCN)NC(=O)[C@H](CC(=O)O)NC(=O)[C@@H](NC(=O)[C@H](CCCNC(=N)N)NC(C)=O)C(C)C)[C@@H](C)O)C(=O)N[C@@H](Cc1ccc(O)cc1)C(=O)N[C@@H](CC(N)=O)C(=O)N[C@@H](CCCNC(=N)N)C(=O)N[C@@H](CNC(C)=O)C(N)=O` [Peptide 22] (Ac-RVDKGSYLPRPTPPRPIYNR[Dap](Ac)-NH2), for which, in [9], the “degradation rate compared with other peptides (in words)” value is on record as “degrades considerably faster than either Peptide 1 or Peptide 21”. The “Degradation product −C1, relative amount” value in data set [10], in data set [11] (setting [16]) and in data set [11] (setting [17]) was 0 in each case. The “Degradation product −C2, relative amount” value is 2 (2=weak (5–10000)) in [10], 5 in data set [11] (setting [16]) and 5 in data set [11] (setting [17]). For the same compound, the “Degradation product −C3, relative amount” value in data set [10] is listed as 0; in data set [11] (setting [16]), 3 (3=medium (10–15000)); in data set [11] (setting [17]), 0. The “Degradation product −C6, relative amount” value in [10], in [11] (setting [16]) and in data set [11] (setting [17]) was 0 in each case. In addition, the figures for the “Degradation product −N3, C2, relative amount” value in [10], in data set [11] (setting [16]) and in data set [11] (setting [17]) were 0, 1 (1=very weak (below 5000)) and 0, respectively. The “Degradation product −N3, relative amount” value is on record as 0 in data set [10], 2 (2=weak (5–10000)) in data set [11] (setting [16]) and 2 (2=weak (5–10000)) in data set [11] (setting [17]). Moreover, the “Degradation product −N5, C2, relative amount” value is on record as 0 in [10], 2 (2=weak (5–10000)) in [11] (setting [16]) and 0 in data set [11] (setting [17]). For the same compound, the entries for the “Degradation product −N5, relative amount” value in data set [10], in [11] (setting [16]) and in [11] (setting [17]) were 0, 3 (3=medium (10–15000)) and 1 (1=very weak (below 5000)), respectively. The IC50 was 2.5 µM in data set [2] (murium); 2.5 µM in data set [2] (murium, 24 h); 80 µM in data set [3] (Bacillus); 40 µM in [3] (Bacillus, 24 h); 10 µM in data set [4]; 10 µM in [4] (24 h). Besides, the IC50 worked out at 0.6 µM in data set [5] and 2.5 µM in [5] (24 h).

As to VDKGSYLPR [Peptide 14], the IC50 in data set [1], in data set [2] (setting [12]), in [3] (setting [13]), in [4] (setting [14]) and in data set [5] (setting [15]) was greater than 80 µM throughout.

The values are drawn from patent US7015309B1 (The Wistar Institute of Anatomy and Biology, priority 1999, dated 2006).
